Assay results published in US9868731B2, “Indole amide compound as inhibitor of necrosis” (LG CHEM, LTD., priority 2013, dated 2018).

tested on: primary hepatocytes isolated from rats; experiment: Hepatocyte protective effect against doxorubicin-induced hepatocyte toxicity (WST-1 viability); assay type: cell-based; conditions: Hepatocyte; against doxorubicin treatment; primary rat hepatocytes pretreated with compound 30 min; viability by WST-1 after 24-48 hours; concentration giving 50% of maximum protective effect
Protocol: Various endogenous/exogenous attacks on cells trigger the mechanisms of cell death which is broadly classified into two types—i.e., apoptosis or necrosis. Using these cell death mechanisms, in the present experimental example, primary hepatocytes isolated from rats were treated with drugs which were clinically shown to result in serious side-effects of hepatocyte toxicity or various chemicals which cause cell death, and the compounds synthesized in the Examples were estimated for their hepatocyte protective effects, after 24-48 hours. The substances used to cause hepatocyte death include CCl4, ActD, H2O2, doxorubicin, anti-Fas Ab/Actinomycin D, acetaminophen, EtOH, CdCl2, palmitate, stearate, cyclophosphamide, terfenadine, diclofenac, simvastatin, and adefovir. Primary hepatocytes were isolated using the method of Seglen P O (Experimental Cell Research 74 (1972), pp. 450-454). Briefly, hepatocytes were isolated according to the two-step collagenase perfusion method, and dead cells were removed by low speed (500 rpm) centrifugation for 10 min using percoll gradient (Kreamer B L et al., In Vitro Cellular & Developmental Biology 22 (1986), pp. 201-211). During this step, the viability of cells was maintained 90% or above. The cells were suspended in HepatoZYME media (Gibco BRL), and the number of cells was counted. 1.5×10^4 cells in 100 μl were placed into the collagen-coated 96-well plate (BD Biocoat), and adhered on the bottom for 3-4 hours.
In order to assess the hepatocyte protective effect, the above adhered cells were pretreated with the Example compounds for 30 min. At this time, the concentration of the Example compounds was serially diluted by 2-fold or 3-fold over 5 steps starting from 30 μM, 10 μM or 1 μM depending on the experiments, and the final concentration of DMSO was adjusted to 0.2%. 30 min after the treatment by the compounds, the cells were treated by the substances deriving hepatocyte death or hepatotoxic drugs at the concentrations indicated in Table 1. After 24-48 hours, the viability of cells was determined to estimate the hepatocyte protective effects. The viability of cells was determined using the WST-1 (MK-400, […]) method by the absorbance at 440 nm. Hepatocyte protective effects of the Example compounds were represented by “EC50” which was calculated from measured values. “EC50” herein means the concentration of the compound at which 50% of maximum protective effect is observed in the experiment.

Question: `O=C(Nc1cccc(CN2CCOCC2)c1)c1cc2cc(Cl)cc(NC3CCNCC3)c2[nH]1` [Example 13, 5-Chloro-7-(piperidin-4-ylamino)-1H-indol-2-carboxylic acid (3-morpholin-4-ylmethyl-phenyl)-amide] was tested. Which EC50 did it give?
Answer: Its EC50 is 150 nM.

Question: How did the EC50 turn out when `Cc1cc(NC2CCCC2)c2[nH]c(C(=O)N3CCNCC3)cc2c1` [Example 29, (7-Cyclopentylamino-5-methyl-1H-indol-2-yl)-piperazin-4-yl-methanone] was run?
Answer: Its EC50 is 200 nM.

Question: How did the EC50 turn out when `Cc1cc(NC2CCOCC2)c2[nH]c(C(=O)N3CC[C@H](C(=O)O)C3)cc2c1` [Example 38, (S)-1-[5-methyl-7-(tetrahydropyran-4-ylamino)-1H-indol-2-carbonyl]-pyrrolidin-3-carboxylic acid] was run?
Answer: The EC50 was 330 nM.

Question: Which EC50 does the source give for `CC(C)CCNc1cc(Cl)cc2cc(C(=O)N3CCC(CN)C3)[nH]c12` (centres unmarked) [Example 46, (3-Aminomethyl-pyrrolidin-1-yl)-[5-chloro-7-(3-methyl-butylamino)-1H-indol-2-yl]-methanone] here?
Answer: The EC50 was 290 nM.

Question: Which EC50 does the source give for `CCCCCNc1cc(Cl)cc2cc(C(=O)N3CCC(CN)C3)[nH]c12` (centres unmarked) [Example 50, (3-Aminomethyl-pyrrolidin-1-yl)-(5-chloro-7-pentylamino-1H-indol-2-yl]-methanone] here?
Answer: The EC50 was 175 nM.

Question: Which EC50 does the source give for `NCC1CCN(C(=O)c2cc3cc(Cl)cc(N(CC4CC4)CC4CC4)c3[nH]2)C1` (centres unmarked) [Example 53, (3-Aminomethyl-pyrrolidin-1-yl)-[7-(bis-cyclopropylmethyl-amino)-5-chloro-1H-indol-2-yl]-methanone] here?
Answer: Its EC50 is 710 nM.

Question: How did the EC50 turn out when `N[C@H]1CCN(C(=O)c2cc3cc(Cl)cc(NC4CCCC4)c3[nH]2)C1` [Example 55, ((S)-3-amino-pyrrolidin-1-yl)-(5-chloro-7-cyclopentylamino-1H-indol-2-yl}-methanone] was run?
Answer: The EC50 was 430 nM.

Question: Which EC50 does the source give for `CC(C)CCN(CCC(C)C)c1cc(Cl)cc2cc(C(=O)N3C[C@@H](CN4CCCC4)[C@H](c4ccc(F)cc4F)C3)[nH]c12` [Example 60, {7-[Bis-(3-methyl-butyl)-amino]-5-chloro-1H-indol-2-yl}-[(3R,4R)-3-(2,4-difluoro-phenyl)-4-pyrrolidin-1-ylmethyl-pyrrolidin-1-yl]-methanone] here?
Answer: The EC50 was 250 nM.

same assay, conditions: against doxorubicin treatment; primary rat hepatocytes pretreated with compound 30 min; viability by WST-1 after 24-48 hours; concentration giving 50% of maximum protective effect

Question: For `NCC1CCN(C(=O)c2cc3cc(Cl)cc(NCCc4ccccc4)c3[nH]2)C1` (centres unmarked) [Example 49, (3-Aminomethyl-pyrrolidin-1-yl)-(5-chloro-7-penethylamino-1H-indol-2-yl]-methanone], which EC50 is on record?
Answer: The EC50 was 330 nM.

Question: For `NCC1CCN(C(=O)c2cc3cc(Cl)cc(NC4CCCCC4)c3[nH]2)C1` (centres unmarked) [Example 51], which EC50 is on record?
Answer: The EC50 was 330 nM.

Question: Which EC50 does the source give for `NCC1CCCN(C(=O)c2cc3cc(Cl)cc(NC4CCCC4)c3[nH]2)C1` (centres unmarked) [Example 52] here?
Answer: Its EC50 is 210 nM.
